The text below walks through data of patent US8933098B2, “Dimethyl-benzoic acid compounds” (Eli Lilly and Company, priority 2012, dated 2015).

For orientation: Ki means the dissociation constant of the complex between target and ligand, obtained from inhibition or displacement. A word on the IC50: it is the point on the concentration scale where inhibition reaches its midpoint.

The structures appear in SMILES notation.

One assay has as its target human EP1 (Homo sapiens (Human), UniProt P34995). Nature of the assay: In vitro binding to human EP1, [3H]-PGE2 displacement on membranes. Particulars: HEK293 membranes, n = 1, read-out: hEP1, Ki. The procedure:
(§1) hEP1 and hEP4 membranes are prepared from recombinant HEK293 cells stably expressing human EP1 (Genbank accession number AY275470) or EP4 (Genbank accession number AY429109) receptors. hEP2 and hEP3 membranes are prepared from HEK293 cells transiently transfected with EP2 (Genbank accession number AY275471) or EP3 (isoform VI: Genbank accession number AY429108) receptor plasmids. Frozen cell pellets are homogenized in homogenization buffer using a Teflon/glass homogenizer. Membrane protein is aliquoted and quick frozen on dry ice prior to storage at −80° C. Homogenization buffer contained 10 mM Tris-HCl, pH 7.4, 250 mM sucrose, 1 mM EDTA, 0.3 mM indomethacin and plus Complete™, with EDTA, obtained from Roche Molecular Biochemicals (Catalog Number 1 697 498).
(§2) Kd values for [3H]-PGE2 binding to each receptor are determined by saturation binding studies or homologous competition. Compounds are tested in a 96-well format using a three-fold dilution series to generate a 10-point curve. […] The membranes are harvested by filtration (TomTek harvester), washed 4 times with cold buffer (10 mM MES pH 6.0 with KOH, 10 mM MgCl2), dried in a 60° C. oven, and the radioactivity is quantified as counts per minute (CPM) using a TopCount detector. […]

The target in the next assay is human EP2 (Homo sapiens (Human), UniProt P43116). Nature of the assay: In vitro binding to human EP2, [3H]-PGE2 displacement on membranes. The settings on record: HEK293 membranes, n = 1, read-out: hEP2, Ki. The procedure: as §1, §2
The next assay has as its target human EP3 (isoform VI) (Homo sapiens, UniProt P43115). Kind of assay: In vitro binding to human EP3, [3H]-PGE2 displacement on membranes. The settings on record: HEK293 membranes, n = 1, read-out: hEP3, Ki. The protocol: as §1, with “-80°” for “−80°”, “CompleteTM,” for “Complete™,”, “498). Kd values for [3H]-PGE2 binding to each receptor are determined by saturation binding studies or homologous competition. Compounds are tested in a 96-well format using a three-fold dilution series to generate a 10-point curve. […] The membranes are harvested by filtration (TomTek harvester), washed 4 times with cold buffer (10 mM MES pH 6.0 with KOH, 10 mM MgCl2), dried in a 60° C. oven, and the radioactivity is quantified as counts per minute (CPM) using a TopCount detector. […]” for “498).”

In assay [1] the target is T1, human EP4 (Homo sapiens (Human), UniProt P35408). Nature of the assay: In vitro binding to human EP4, [3H]-PGE2 displacement on membranes. Particulars: HEK293 membranes, n = 7, read-out: hEP4, Ki.
Target sequence in this assay (P35408 whole entry, looked up): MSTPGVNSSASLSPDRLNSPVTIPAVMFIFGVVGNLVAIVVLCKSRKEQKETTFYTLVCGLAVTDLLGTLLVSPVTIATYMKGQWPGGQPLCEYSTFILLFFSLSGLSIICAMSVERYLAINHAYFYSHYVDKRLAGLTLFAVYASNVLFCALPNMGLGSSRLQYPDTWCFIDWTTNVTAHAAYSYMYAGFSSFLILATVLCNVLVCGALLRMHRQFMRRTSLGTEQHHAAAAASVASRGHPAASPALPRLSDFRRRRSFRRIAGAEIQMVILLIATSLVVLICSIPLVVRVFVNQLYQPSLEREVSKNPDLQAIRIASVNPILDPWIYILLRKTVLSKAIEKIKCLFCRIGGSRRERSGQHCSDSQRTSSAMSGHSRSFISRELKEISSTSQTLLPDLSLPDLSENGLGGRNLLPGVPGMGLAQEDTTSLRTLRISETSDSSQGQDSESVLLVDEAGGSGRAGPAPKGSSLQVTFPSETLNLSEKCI
Protocol: Compounds are tested in a 96-well format using a three-fold dilution series to generate a 10-point curve. […] The binding reaction is performed in 200 μL MES buffer (10 mM MES pH 6.0 with KOH, 10 mM MgCl2 and 1 mM EDTA) using 0.5 mL polystyrene 96-well deep-well plates. […] The membranes are harvested by filtration (TomTek harvester), washed 4 times with cold buffer (10 mM MES pH 6.0 with KOH, 10 mM MgCl2), dried in a 60° C. oven, and the radioactivity is quantified as counts per minute (CPM) using a TopCount detector. […] Data are analyzed using a 4-parameter nonlinear logistic equation (ABase Equation 205) as shown: y=(A+((B−A)/(1+((C/x)^D)))) where, y=% specific inhibition, A=bottom of the curve; B=top of the curve; C=relative IC50 concentration causing 50% inhibition based on the range of the data from top to bottom; D=Hill, Slope=slope of the curve. Ki conversion from IC50 Values (Ki=IC50/(1+[L]/Kd) where [L] is the ligand concentration).
The target in assay [2] is T1, human EP4. Nature of the assay: In vitro human EP4 functional antagonist activity (PGE2-stimulated cAMP, HTRF). It is filed as cell-based. Particulars: read-out: IC50 measured at human EP4. The source says:
The raw data are converted to cAMP amount (pmole/well) using a cAMP standard curve generated for each experiment.
Target sequence in this assay (P35408 whole entry): as the sequence (P35408 whole entry, looked up) above
(In general: TR-FRET usually uses a lanthanide donor and a delayed reading to cut background.)

Another assay deals with rat EP4 (Rattus norvegicus (Rat), UniProt P43114). Nature of the assay: In vitro rat EP4 functional antagonist activity (PGE2-stimulated cAMP, HTRF). The class given is cell-based. Particulars: inhibition of PGE2-stimulated (EC80) cAMP production, HEK293 cells expressing rat EP4; read-out: IC50 measured at rat EP4.
For assay [3], the target named is T1, human EP4. Nature of the assay: In vitro antagonist activity in human whole blood (reversal of PGE2 inhibition of LPS-induced TNFα production). The class given is cell-based. The settings on record: read-out: IC50 measured at human EP4, human blood TNFα induction assay.
Target sequence in this assay (P35408 whole entry, looked up): as above
Protocol: Blood is collected from normal volunteer donors into sodium heparin vacutainer tubes. Donors have not taken NSAIDs or celecoxib within 48 hours or glucocorticoids within two weeks of the donation. All tubes/donor are pooled into 50 mL Falcon conical centrifuge tubes and 98 μL/well is distributed into 96-well tissue culture plates (Falcon 3072). […] The plates are incubated for 20-24 hours at 37° C. in a 5% CO2 humidified atmosphere. The plates are centrifuged at 1800×g, 10 minutes at 22° C., in an Eppendorf 5810R centrifuge. Plasma is removed from the cell layer and is transferred to v-bottom polypropylene plates. TNFα levels in 2 μL plasma are quantified by a commercially available enzyme immunoassay (R&D Systems DY210), using Immulon 4 HBX plates (Thermo 3855) and 3,3′,5,5′ tetramethylbiphenyl-4,4′-diamine substrate (KPL 50-76-03). The plates are read at A450-A650 on a plate reader (Molecular Devices Versamax) using SOFTmaxPRO (v. 4.3.1) software. IC50s are calculated using Graphpad Prism (v. 4) nonlinear regression, sigmoidal dose response curve fitting. Results are expressed as the geometric mean±standard deviation; n=number of independent determinations.

human EP1, sequence (P34995 whole entry, canonical isoform): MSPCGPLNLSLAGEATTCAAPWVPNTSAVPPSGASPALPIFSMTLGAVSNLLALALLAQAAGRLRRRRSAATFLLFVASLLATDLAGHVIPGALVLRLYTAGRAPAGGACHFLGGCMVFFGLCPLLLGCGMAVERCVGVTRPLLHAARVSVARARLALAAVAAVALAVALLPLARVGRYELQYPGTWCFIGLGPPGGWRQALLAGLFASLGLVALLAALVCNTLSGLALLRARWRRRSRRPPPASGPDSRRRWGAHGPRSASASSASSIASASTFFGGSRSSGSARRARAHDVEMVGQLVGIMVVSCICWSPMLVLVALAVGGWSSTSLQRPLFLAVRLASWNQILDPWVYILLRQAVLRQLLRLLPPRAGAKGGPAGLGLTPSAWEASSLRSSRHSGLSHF
human EP3 (isoform VI), sequence (P43115 whole entry, looked up, canonical isoform): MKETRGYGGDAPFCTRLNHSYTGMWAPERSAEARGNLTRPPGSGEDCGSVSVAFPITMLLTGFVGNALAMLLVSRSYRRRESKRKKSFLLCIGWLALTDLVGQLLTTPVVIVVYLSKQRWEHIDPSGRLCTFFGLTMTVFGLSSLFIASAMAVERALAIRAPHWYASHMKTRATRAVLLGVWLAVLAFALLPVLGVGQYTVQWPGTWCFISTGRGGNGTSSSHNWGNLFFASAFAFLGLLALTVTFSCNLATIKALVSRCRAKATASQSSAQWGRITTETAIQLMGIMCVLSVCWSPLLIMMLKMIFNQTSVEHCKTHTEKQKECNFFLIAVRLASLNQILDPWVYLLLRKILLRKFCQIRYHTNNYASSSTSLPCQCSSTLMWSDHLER
rat EP4, sequence (P43114 whole entry): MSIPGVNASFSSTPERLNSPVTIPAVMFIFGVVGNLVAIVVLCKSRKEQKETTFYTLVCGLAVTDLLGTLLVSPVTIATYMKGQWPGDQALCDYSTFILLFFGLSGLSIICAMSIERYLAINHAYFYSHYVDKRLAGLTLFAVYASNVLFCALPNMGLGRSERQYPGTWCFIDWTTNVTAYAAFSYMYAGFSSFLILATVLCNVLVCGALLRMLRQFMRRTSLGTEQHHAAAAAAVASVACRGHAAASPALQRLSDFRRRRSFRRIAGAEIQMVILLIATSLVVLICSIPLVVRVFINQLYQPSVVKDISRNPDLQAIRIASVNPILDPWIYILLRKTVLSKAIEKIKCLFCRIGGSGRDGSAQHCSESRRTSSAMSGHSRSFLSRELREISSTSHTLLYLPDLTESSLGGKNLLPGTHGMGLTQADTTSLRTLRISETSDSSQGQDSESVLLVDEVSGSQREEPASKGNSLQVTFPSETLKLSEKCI
human EP2, sequence (P43116 whole entry, canonical isoform): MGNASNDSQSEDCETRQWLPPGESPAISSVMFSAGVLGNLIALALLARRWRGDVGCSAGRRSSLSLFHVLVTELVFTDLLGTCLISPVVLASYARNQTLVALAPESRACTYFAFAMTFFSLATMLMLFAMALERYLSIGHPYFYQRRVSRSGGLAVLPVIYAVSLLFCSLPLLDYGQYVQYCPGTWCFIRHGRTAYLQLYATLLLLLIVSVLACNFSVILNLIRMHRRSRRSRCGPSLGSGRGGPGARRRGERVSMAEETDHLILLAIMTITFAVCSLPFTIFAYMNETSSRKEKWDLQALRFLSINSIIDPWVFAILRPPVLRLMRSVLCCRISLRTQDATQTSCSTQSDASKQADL
Protocol for rat EP4: To test EP4 antagonist compounds in rEP4 cells, thaw the frozen cells and then resuspend cells in cAMP assay buffer. The cAMP buffer is made by HBSS without Phenol Red (Hyclone, SH30268) supplemented with 20 mM HEPES (Hyclone, SH30237), 0.1% BSA (Gibco, 15260) and 125 μM IBMX (Sigma, 15879). The cells are plated into 96-well half area flat-bottom polystyrene black plates (Costar 3694). […] The cAMP levels generated from the cells are quantified by a cAMP HTRF assay kit (Cisbio 62AM4PEC). The plates are read on an EnVision plate reader using HTRF optimized protocol (PerkinElmer). IC50's are calculated using Graphpad Prism (v. 4) nonlinear regression, sigmoidal dose response curve fitting.

With `Cc1ccc(N2CCC(O)CC2)nc1C(=O)Nc1c(C)cc(C(=O)O)cc1C` [Example 1, 4-[[6-(4-hydroxy-1-piperidyl)-3-methyl-pyridine-2-carbonyl]amino]-3,5-dimethyl-benzoic acid], the Ki is > 17500 nM on human EP1, > 18900 nM at human EP2, > 14000 nM on human EP3 (isoform VI) and 76 ± 47 nM at human EP4 [1]. In addition, the IC50 turned out to be 5.6 ± 2.8 nM on human EP4 [2], 12 nM at rat EP4 and 123 ± 81 nM at human EP4 [3].
